{
  "source": "patent US20240173419A1",
  "about": "“CDK2 DEGRADERS AND USES THEREOF” (Kymera Therapeutics, Inc., priority 2022, published 2024)",
  "target": "T1, CDK2 (Homo sapiens, UniProt P24941)",
  "T1 construct": "endogenous in cells; host or cells: MKN1 cells",
  "assay": "CDK2 degradation in MKN1 cells (AlphaLISA)",
  "format": "cell-based",
  "parameters": "key to CDK2 degradation 14 h: Mean external-Abs DC50 (nM): A (<100 nM); B (≥100-500 nM); C (>500-1000 nM); D (>1000 nM); E (not achieved)",
  "conditions": "for DC50: read-out: CDK2 degradation 14 h: Mean external-Abs DC50; for Dmax: MKN-1, 14 h incubation",
  "procedure": "Degradation of CDK2 in MKN1 cells was measured using AlphaLISA technology (PerkinElmer ALSU-TCDK2-A10K). MKN1 cells were maintained in RPMI1640 medium containing 10% FBS+1× penn/strep. Cells were seeded in 96-well plates (Corning 3599) at a density of 2e4 cells per well in 80 μL of fresh complete growth medium. Cells were incubated overnight at 37° C., 5% CO2. Compounds were then added to the cell assay plates with a final top concentration of 10 μM in a 1:5 dilution series with a total of 11 doses (0.001 nM-10 μM). The final volume per well was 160 μL and the final DMSO concentration was 0.1%. Additionally, wells containing no cells and only complete growth medium were also maintained on the cell assay plates (‘no cell’ wells) and processed along with experimental wells. After 14 hour-incubation at 37° C., 5% CO2, the medium was removed and the cells were washed once with 100 μL of 1×PBS. Following removal of PBS, 40 μL of 1× Lysis Buffer containing 1× protease and phosphatase inhibitors (Roche 4693116001; Roche 4906837001) were added to each well. The cell assay plate was agitated on a plate shaker at 350 rpm for 10 minutes at room temperature. 10 μL of each cell lysate were transferred to a 384-well plate (PerkinElmer 6007290). 10 μL of control lysates (from PerkinElmer ALSU-TCDK2-A10K kit) were added to separate wells to generate a standard curve. Activation Buffer was prepared by diluting 25-fold in combined Reaction Buffer 1 and Reaction Buffer 2. Acceptor Beads were diluted 50-fold in combined Reaction Buffers. 5 μL of Acceptor Mix were added to each well. The plate was sealed with Topseal-Aadhesive film, covered with foil, and incubated in the dark for 1 hour at room temperature. Under subdued light, the Donor Beads were diluted 50-fold in Dilution Buffer. 5 μL of Donor Mix were added to each well under subdued light. The plate was sealed with Topseal-A adhesive film, covered with foil, and incubated in the dark for 1 hour at room temperature. Under subdued light, the plates were analyzed on an EnVision Microplate Reader (PerkinElmer Model 2009-0030). The average signal from ‘no cell’ wells was subtracted from the signal in experimental wells prior to calculating Alpha signal for test compounds and negative control (0.100 DMSO). The data were analyzed using Xlfit (v5.3. 1.3) and the dose-dependent CDK2 degradation data were fit using a four-parameter logistic model to calculate DC50.",
  "data": [
    {"smiles": "Cc1cc(S(=O)(=O)NC(C)COC2CN(CC3CCN(c4ccc5c(c4F)n(C)c(=O)n5C4CCC(=O)NC4=O)CC3)C2)ccc1Nc1ncc(C(F)(F)F)c(C2CCC(C)(O)CC2)n1", "note": "(racemic) [I-852]", "values": [
      {"measurement": "CDK2 degradation 14 h: Average Dmax %", "setting": "14 h incubation", "value": "B (B (>50% -75%))"},
      {"measurement": "DC50", "setting": "14 h incubation", "value": "< 0.1", "unit": "µM"}
    ]},
    {"smiles": "Cc1cc(S(=O)(=O)NC(C)COC2CCC(CN3CCN(c4ccc5c(c4F)n(C)c(=O)n5C4CCC(=O)NC4=O)CC3)CC2)ccc1Nc1ncc(C(F)(F)F)c(C2CCC(C)(O)CC2)n1", "note": "(racemic) [I-859]", "values": [
      {"measurement": "DC50", "setting": "14 h incubation", "value": "< 0.1", "unit": "µM"}
    ]},
    {"smiles": "[2H]C(C)(COC1CCC(CN2CCN(c3ccc4c(c3F)n(C)c(=O)n4C3CCC(=O)NC3=O)CC2)CC1)NS(=O)(=O)c1ccc(Nc2ncc(C(F)(F)F)c(C3CCC(C)(O)CC3)n2)c(C)c1", "note": "(racemic) [I-859]", "values": [
      {"measurement": "CDK2 degradation 14 h: Average Dmax %", "setting": "14 h incubation", "value": "A (A (>75% o))"}
    ]},
    {"smiles": "Cc1cc(S(=O)(=O)NC2CCC(CN3CCN(c4ccc([C@@H]5CCC(=O)NC5=O)c(Cl)c4)CC3)CC2)ccc1Nc1ncc(C(F)(F)F)c(N2CCC[C@](C)(O)C2)n1", "note": "(single isomer, unassigned) [I-809]", "values": [
      {"measurement": "DC50", "setting": "14 h incubation", "value": "< 0.1", "unit": "µM"},
      {"measurement": "Dmax", "value": "> 75", "unit": "%"}
    ]},
    {"smiles": "Cc1cc(S(=O)(=O)NC2CCC(CN3CCN(c4ccc([C@H]5CCC(=O)NC5=O)c(Cl)c4)CC3)CC2)ccc1Nc1ncc(C(F)(F)F)c(N2CCC[C@](C)(O)C2)n1", "note": "(single isomer, unassigned) [I-817]", "values": [
      {"measurement": "DC50", "setting": "14 h incubation", "value": "0.1 to 0.5", "unit": "µM"},
      {"measurement": "Dmax", "value": "> 75", "unit": "%"}
    ]},
    {"smiles": "Cc1cc(S(=O)(=O)CCCO[C@H]2CC[C@H](CN3CCC(c4ccc5c(c4)n(C)c(=O)n5C4CCC(=O)NC4=O)CC3)CC2)ccc1Nc1ncc2cc(Cl)c(=O)n(C3CCCC3)c2n1", "note": "(stereo partly shown) [I-3, 3-[5-[1-[[4-[3-[4-[(6-Chloro-8-cyclopentyl-7-oxo-pyrido[2,3-d]pyrimidin-2-yl)amino]-3-methyl-phenyl]sulfonylpropoxy]cyclohexyl]methyl]-4-piperidyl]-3-methyl-2-oxo-benzimidazol-1-yl]piperidine-2,6-dione]", "values": [
      {"measurement": "DC50", "setting": "14 h incubation", "value": "< 0.1", "unit": "µM"},
      {"measurement": "Dmax", "value": "> 75", "unit": "%"}
    ]},
    {"smiles": "Cc1cc(S(=O)(=O)CCCO[C@H]2CC[C@H](CN3CCC(c4ccc5c(c4)n(C4CCC(=O)NC4=O)c(=O)n5C)CC3)CC2)ccc1Nc1nccc(-c2cnc(C)n2C(C)C)n1", "note": "(stereo partly shown) [I-4]", "values": [
      {"measurement": "CDK2 degradation 14 h: Average Dmax %", "setting": "14 h incubation", "value": "B (B (>50% -75%))"},
      {"measurement": "DC50", "setting": "14 h incubation", "value": "< 0.1", "unit": "µM"}
    ]},
    {"smiles": "Cc1cc(S(=O)(=O)CCCO[C@H]2CC[C@H](CN3CCC(c4ccc5c(c4)n(C4CCC(=O)NC4=O)c(=O)n5C)CC3)CC2)ccc1Nc1ncc2cc(C(F)F)c(=O)n(C(C)C)c2n1", "note": "(stereo partly shown) [I-6]", "values": [
      {"measurement": "CDK2 degradation 14 h: Average Dmax %", "setting": "14 h incubation", "value": "B (B (>50% -75%))"},
      {"measurement": "CDK2 degradation 14 h: Mean external-Abs DC50 (nM)", "setting": "14 h incubation", "value": "E"}
    ]},
    {"smiles": "Cc1cc(S(=O)(=O)C2CCN(CCN3CCN(c4cccc5c4n(C)c(=O)n5C4CCC(=O)NC4=O)CC3)CC2)ccc1Nc1ncc2cc(Cl)c(=O)n(C(C)C)c2n1", "note": "(stereo not shown) [I-7]", "values": [
      {"measurement": "CDK2 degradation 14 h: Average Dmax %", "setting": "14 h incubation", "value": "A (A (>75% o))"},
      {"measurement": "DC50", "setting": "14 h incubation", "value": "< 0.1", "unit": "µM"}
    ]},
    {"smiles": "Cc1cc(S(=O)(=O)C2CCN(CCN3CCC(c4cccc5c4n(C)c(=O)n5C4CCC(=O)NC4=O)CC3)CC2)ccc1Nc1ncc2cc(Cl)c(=O)n(C(C)C)c2n1", "note": "(stereo not shown) [I-8]", "values": [
      {"measurement": "CDK2 degradation 14 h: Average Dmax %", "setting": "14 h incubation", "value": "B (B (>50% -75%))"},
      {"measurement": "DC50", "setting": "14 h incubation", "value": "0.1 to 0.5", "unit": "µM"}
    ]},
    {"smiles": "Cc1cc(S(=O)(=O)C2CCN(C3CCN(CC4CCN(c5cccc6c5n(C)c(=O)n6C5CCC(=O)NC5=O)CC4)CC3)CC2)ccc1Nc1ncc2cc(Cl)c(=O)n(C(C)C)c2n1", "note": "(stereo not shown) [I-10]", "values": [
      {"measurement": "CDK2 degradation 14 h: Average Dmax %", "setting": "14 h incubation", "value": "A (A (>75% o))"},
      {"measurement": "DC50", "setting": "14 h incubation", "value": "< 0.1", "unit": "µM"}
    ]},
    {"smiles": "Cc1cc(S(=O)(=O)C2CCN(CCC3CCN(c4cccc5c4n(C)c(=O)n5C4CCC(=O)NC4=O)CC3)CC2)ccc1Nc1ncc2cc(Cl)c(=O)n(C(C)C)c2n1", "note": "(stereo not shown) [I-11]", "values": [
      {"measurement": "CDK2 degradation 14 h: Average Dmax %", "setting": "14 h incubation", "value": "A (A (>75% o))"},
      {"measurement": "DC50", "setting": "14 h incubation", "value": "< 0.1", "unit": "µM"}
    ]},
    {"smiles": "Cc1cc(S(=O)(=O)C(C)CCO[C@H]2CC[C@H](CN3CCC(c4ccc5c(c4)n(C4CCC(=O)NC4=O)c(=O)n5C)CC3)CC2)ccc1Nc1ncc2cc(Cl)c(=O)n(C3CCCC3)c2n1", "note": "(stereo partly shown) [I-12]", "values": [
      {"measurement": "CDK2 degradation 14 h: Average Dmax %", "setting": "14 h incubation", "value": "A (A (>75% o))"},
      {"measurement": "DC50", "setting": "14 h incubation", "value": "< 0.1", "unit": "µM"}
    ]},
    {"smiles": "Cc1cc(S(=O)(=O)C2CCC(N3CCC(CN(C)c4cccc5c4n(C)c(=O)n5C4CCC(=O)NC4=O)CC3)CC2)ccc1Nc1ncc2cc(Cl)c(=O)n(C3CCCC3)c2n1", "note": "(stereo not shown) [I-33]", "values": [
      {"measurement": "CDK2 degradation 14 h: Average Dmax %", "setting": "14 h incubation", "value": "A (A (>75% o))"},
      {"measurement": "DC50", "setting": "14 h incubation", "value": "< 0.1", "unit": "µM"}
    ]},
    {"smiles": "Cc1cc(S(=O)(=O)C2CC(N3CCC4(CC3)CN(c3cccc5c3n(C)c(=O)n5C3CCC(=O)NC3=O)C4)C2)ccc1Nc1ncc2cc(Cl)c(=O)n(C3CCCC3)c2n1", "note": "(stereo not shown) [I-35]", "values": [
      {"measurement": "CDK2 degradation 14 h: Average Dmax %", "setting": "14 h incubation", "value": "B (B (>50% -75%))"},
      {"measurement": "DC50", "setting": "14 h incubation", "value": "< 0.1", "unit": "µM"}
    ]}
  ]
}
